# Experimental data as given in patent US20200214324A1, “Masking Bitter Flavors” (Board of Supervisors of Louisiana State University and …, priority 2009, published 2020).
# “Also recorded” adds a separate entry of the source.
# Columns and labels:
# Assay type in all cases: in vivo
# [1] = tasting of turnip greens with mogroside in oil; conditions: plain + 100 ppm mogroside in oil (plain: bitter)
# Text: (§1) Additional examples of the use of Mogroside V to alter the flavors of various consumables, and the experimental results obtained, are summarized in Table I: […]
# [2] = tasting of Ruby Red grapefruit with mogroside
# Text: as §1
# [3] = tasting of lima beans with mogroside in oil; conditions: plain + 100 ppm mogroside in oil (plain: beany)
# Text: as §1
# [4] = tasting of acai products with mogroside
# Text: Acai berries have a bitter off-flavor, which has limited the use of acai as a natural anti-oxidant. Prior methods for minimizing the bitterness of acai have included diluting the juice, adding sugar, or mixing acai with other, sweeter berries. […] The flat, tannic notes of acai were masked, and the puree flavor changed to a semi-sweet berry flavor with large, juicy top notes. The preferred concentration range was ˜200 to ˜500 ppm mogroside. […] Possible uses include any products that contain acai berry ingredients, including for example raw berries, purees, powders, flavorings, juices, ice cream (with or without glycerin), fruit fillings, smoothies, yogurts, teas, coffee, beer, salad dressing, marinades, candies, wines, liquors, other alcoholic beverages, and the like.
# as §1
# [5] = tasting of Robusta coffee with chicory with mogroside; conditions: 2 g/250 g water, plain + 200 ppm mogroside
# Text: as §1
# [6] = tasting of pomegranate juice with mogroside; conditions: plain + 200 ppm mogroside (plain: tannic)
# Text: as §1
# [7] = difference and preference testing of a cocoa powder drink with 400 ppm mogroside
# Text: as §1
# [8] = tasting of Hominex amino acid beverage with mogroside; conditions: for off-flavors, chalkiness, pastiness and bitterness compared to the unmodified beverage / mogroside-associated off flavor: Hominex suspension
# Method: For example, we added mogroside to a commercial amino acid beverage (Hominex™) at a rate of 200-1000 ppm, preferably 300-800 ppm. The Hominex™ suspension, which contains free amino acids, vitamins, minerals, and other nutrients, was prepared in accordance with the manufacturer's directions. Mogroside was then added to the dissolved medical food drink. The suspension was allowed to equilibrate for about one minute before tasting. Compared to the unmodified beverage, there was a marked reduction in the off-flavors, the chalkiness, the pastiness, and the bitterness. […] Unless additional flavors are also added, mogroside's own off-flavor can limit its use at higher concentrations. Conversely, at least for the samples we have tested to date, there may be no compelling reason to use mogroside at such higher levels anyway. Using mogroside in free amino acid-based foods can reduce or eliminate the bitter and unpleasant flavors, making them much more palatable, and enhancing patient compliance. Similar results are expected for improving the palatability of other medical foods.
# as §1
# [9] = tasting of Powerade sports drink with KCl and mogroside
# Text: as §1
# [10] = tasting of coconut water with mogroside; conditions: plain + 200 ppm mogroside (plain: bitter)
# Text: as §1
# [11] = blind tasting of poached beef liver puree
# Method: In another experiment, mogroside was added to a beef liver puree, and the puree was poached to an internal temperature of 74° C. A control puree with no mogroside was identically cooked. Six individuals tasted the samples blind and could easily differentiate them.
# [12] = tasting of acai ice cream with glycerine and mogroside
# Text: as §1
# [13] = tasting of soy milk with mogroside; conditions: plain + 200 ppm mogroside (plain: beany)
# Text: as §1
# [14] = tasting of Hominex amino acid beverage with mogroside; conditions: 9.3 g Hominex/100 ml water + 100 ppm mogroside (plain: bitter, chalky, floury)
# [15] = tasting of rum with mogroside; conditions: plain + 200 ppm mogroside (plain: sharp and bitter)
# Text: as §1
# [16] = tasting of aqueous potassium chloride solutions with or without mogroside
# Text: When tasted by volunteers, the solution without mogroside was bitter, unpleasant, and generally considered undrinkable.
# as §1
# [17] = tasting of cocoa powder with mogroside; conditions: plain + 200 ppm mogroside (plain: bitter)
# Text: as §1
# [18] = cocoa powder drink + 400 ppm mogroside vs control, number of tasters
substance,measurement,setting,value
mogroside,flavor,[1],semi-sweet; no; also recorded: beaniness
same,flavor,"[2]; plain + 100 ppm mogroside (plain: mild sour, mild sweet, very mild aftermath)",no difference from plain
same,flavor,[2]; plain + 200 ppm mogroside,"mild sour, sweet, high"
same,flavor,[2]; plain + 300 ppm mogroside,"sweet, hint of sour,; also recorded: aftertaste of bitterness"
same,flavor,[2]; plain + 400 ppm mogroside,"very sweet, no sour,; also recorded: hint of bitterness"
same,flavor,[2]; plain + 600 ppm mogroside,too sweet
same,flavor,[3],semi-sweet; no; also recorded: beaniness
same,flavor,"[4]; Acai puree 12% Brix, plain + 500 ppm mogroside (plain: tannic)",berry-semi-sweet/fruity
same,flavor,"[4]; Acai, 100 ppm mogroside (control: bitter, tannic)","bland, slight tannic"
same,flavor,"[4]; Acai, 200 ppm mogroside","fruity, berry semi-sweet"
same,flavor,"[4]; Acai, 300 ppm mogroside","tannic, little flavor at all"
same,flavor,"[4]; Acai, 400 ppm mogroside","jammy, slight tannic"
same,flavor,"[4]; Acai, 500 ppm mogroside","jammy, no tannin"
same,flavor,"[4]; Acai, 600 ppm mogroside","jammy, sweet after taste;; also recorded: high intensity flavor"
same,flavor,"[4]; Acai, 700 ppm mogroside",sweet
same,flavor,"[4]; Acai, 800 ppm mogroside",too sweet
same,flavor,"[4]; acai products, 800 ppm mogroside","strong, high-intensity sweet flavor"
same,effect on bitterness and off-flavor of acai,[4]; mogroside added to acai berry puree,masked the bitterness and off-flavor notes
same,flavor,[5],sweet coffee flavor
same,flavor,[6],sweet
same,Difference testing: No,[7]; [18],0
same,Difference testing: Yes,[7]; [18],6
same,Preference testing: Control,[7]; number preferring control without mogroside,1
same,Preference testing: Test,[7]; number preferring test drink with 400 ppm mogroside,6
same,flavor,[8]; 9.3 g Hominex/100 ml water + 200 ppm mogroside,"much less so, but still; also recorded: bitter & slightly floury"
same,flavor,[8]; 9.3 g Hominex/100 ml water + 300 ppm mogroside,drinkable
same,flavor,[8]; 9.3 g Hominex/100 ml water + 400 ppm mogroside,tasteless
same,flavor,[8]; 9.3 g Hominex/100 ml water + 500 ppm mogroside,tasteless
same,flavor,[8]; 9.3 g Hominex/100 ml water + 600 ppm mogroside,slight strange taste
same,flavor,[8]; 9.3 g Hominex/100 ml water + 700 ppm mogroside,hint of off-note
same,flavor,[8]; 9.3 g Hominex/100 ml water + 800 ppm mogroside,off-flavored
same,flavor,[8]; 10 g Hominex/230 g water + 200 ppm mogroside (without: bad aftertaste),drinkable
same,"off-flavors, chalkiness, pastiness and bitterness compared to the unmodified beverage",[8]; 200 ppm mogroside,reduced
same,"off-flavors, chalkiness, pastiness and bitterness compared to the unmodified beverage",[8]; 300 ppm mogroside,essentially eliminated
same,mogroside-associated off flavor,[8]; 800 ppm mogroside,pronounced
same,mogroside-associated off flavor,[8]; around 600 ppm mogroside,began to develop
same,flavor,[9]; plain + 2% KCl + mogroside (without mogroside: bitter),salty
same,flavor,[9]; plain + 3% KCl + mogroside (without mogroside: bitter),"slightly bitter, salty"
same,flavor,[10],sweet
same,taste description by six blind tasters,"[11]; 150-250 ppm, puree poached to 74° C., control livery, organy, bloody","slightly sweet, “bologna-like,” and “bland.”"
same,level preferred by the majority of testers,[11]; in vivo,200 ppm
same,preference of testers,"[11]; samples with mogroside vs control puree, six individuals",All testers preferred the samples with mogroside
same,flavor and texture,[12]; + 5% Acai + 5% glycerin + 200 ppm mogroside,"not too much flavor,; also recorded: slightly soft"
same,flavor and texture,[12]; + 5% Acai + 5% glycerin + 300 ppm mogroside,"soft, sweet"
same,flavor and texture,[12]; + 5% Acai + 5% glycerin + 400 ppm mogroside,"sweet, not much flavor,; also recorded: some berry, soft"
same,flavor and texture,[12]; + 10% Acai + 5% glycerin + 200 ppm mogroside,"berry notes, slightly soft"
same,flavor and texture,[12]; + 10% Acai + 5% glycerin + 300 ppm mogroside,creamy
same,flavor and texture,[12]; + 10% Acai + 5% glycerin + 400 ppm mogroside,"sweet, jammy, creamy,; also recorded: a bit too sweet"
same,flavor and texture,[12]; + 10% Acai + 10% glycerin + 300 ppm mogroside,creamy
same,flavor and texture,[12]; + 10% Acai + 10% glycerin + 400 ppm mogroside,"sweet, jammy, creamy,; also recorded: a bit too sweet"
same,flavor and texture,"[12]; plain + glycerine + 300 ppm mogroside (plain + glycerine: tannic, not sweet)","soft and creamy, sweet,; also recorded: berry, mild; best texture"
same,flavor and texture,[12]; plain ice cream + 300 ppm mogroside (only),"plain, gummy"
same,flavor,[13],decreased beany flavor
same,flavor,[14],"less so, but still floury"
same,flavor,[15],sweet
same,perceived taste,"[16]; 2% aqueous potassium chloride with 250 ppm mogroside, tasted by volunteers, without mogroside bitter, undrinkable","slightly salty, otherwise bland, and far more drinkable"
same,flavor,[16]; KCl 2% + 250 ppm mogroside (2% alone: bitter),salty
same,flavor,[16]; KCl 2.5% + 250 ppm mogroside,salty
same,flavor,[16]; KCl 3.0% + 250 ppm mogroside,slight bitterness
same,flavor,[17],chocolate
